US11129836B2, “PAR-4 agonists for the treatment of cancer” (Cipla Limited, priority 2016, dated 2021)

Legend:
[1] = tested on: Mouse embryonic fibroblast cells; test: Assay to analyse non-cytotoxic concentration (CellTiter 96 AQueous One cell proliferation assay); assay type: cell-based; details: up to 48 hours, highest concentration of 125 μM
Description: Mouse embryonic fibroblast cells were plated in 96-well cell culture plates (2×10^4 cells/well) and were treated with drug/s at various concentrations. […] After the incubation anti-proliferative activity of test compounds was measured using ProMega Cell Titer aqueous one solution cell proliferation assay kit, viz. CellTiter 96® AQueous One Solution Reagent. Cells were incubated for 1-4 hours at 37° C., 5% CO2 incubator and absorbance was measured at 490 nm using a plate reader. IC50 values were determined by plotting compound concentration versus cell viability.

[2] = tested on: PAR-4; test: PAR-4 secretion assay, Western blot of conditioned media and lysate; assay type: cell-based, mouse
Description: Material: DMEM media, FBS, Mouse embryonic fibroblast cells, PAR-4 antibody, Antirabbit IgG-HRP, Collagen A1 antibody, B-actin antibody, Antimouse IgG HRP
Six well plate seeded (2 ml per well) with Mouse embryonic fibroblast cells in DMEM+10% FBS. The plate was incubated for 16-18 hrs, 37° C. 5% CO2.
Drugs to be tested are diluted with suitable solvent to obtain 25 mM concentration. Media from cells is discarded and replaced with DMEM media with 0.1% FBS. Compound added to the cells at final concentration of 25 μM.
Conditioned media (CM-supernatant) is collected from each well and centrifuged at 1000 rpm/5 mins to remove cell debris. After centrifugation the media was poured in concentration filters (Amicon ultracentrifuge tube with cutoff 10 Kda) and again centrifuged at 4500 rpm/15 mins at 4° C. The media was concentrated to 100 μl and then mixed with 50 μl of loading dye. The mixture was maintained in a 100° C. dry bath/water bath for 10 mins. SDS-PAGE and a western blot was performed of the samples using broad range molecular weight marker.

[3] = tested on: PAR-4; details: mouse embryonic fibroblast (MEF) cells, at micromolar levels; cited from earlier work

| SMILES | toxicity in Mouse Embryonic fibroblast cells [1] | PAR-4 secretion (FIG. 1, Western blot) ([2]; mouse embryonic fibroblast cells) | increase in the secretion of intracellular PAR-4 ([2]; mouse embryonic fibroblast cells (lysate), compared to DMSO control, Western blot, compound at 25 μM) | increase in the secretion of PAR-4 in the conditioned media ([2]; mouse embryonic fibroblast cells, compared to DMSO control, Western blot, compound at 25 μM) | stimulation of PAR-4 secretion [3] |
| --- | --- | --- | --- | --- | --- |
| CO/N=C(\C(=O)N[C@@H]1C(=O)N2C(C(=O)O)=C(COC(N)=O)CS[C@H]12)c1ccco1 [Cefuroxime, (6R, 7R)-3-{[(aminocarbonyl)oxy]methyl}-7-{[(2Z)-2-(2-furyl)-2-(methoxyimino)acetyl]amino}-8-oxo-5-thia-1-azabicyclo [4.2.0]oct-2-ene-2-carboxylic acid] | does not show toxicity | increased PAR-4 secretion | about 2 fold | 4-5 fold |  |
| COc1ccc(C2=N[C@@H](c3ccc(Cl)cc3)[C@@H](c3ccc(Cl)cc3)N2C(=O)N2CCNC(=O)C2)c(OC(C)C)c1 [Nutlin-3a] |  |  |  |  | stimulated PAR-4 secretion at micromolar levels |
